Reference: publication PMC3835060 (2013)

Key:
[1] = test system: HTS (human telomere sequence) d[AG3(TTAG3)3] (DNA, G4) AGGGTTAGGGTTAGGGTTAGGG; test: NMR titration (chemical shifts, line broadening); conditions: 50 mM NaCl, pH 7, 298 K
[2] = test system: HTS (human telomere sequence) d[AG3(TTAG3)3] (DNA, G4) AGGGTTAGGGTTAGGGTTAGGG; test: luminescence titration; conditions: 200 mM KCl, 10 mM potassium phosphate, 1 mM K2EDTA, pH 7.0, 298 K, error ±20%
[3] = test system: HTS (human telomere sequence) d[AG3(TTAG3)3] (DNA, G4) AGGGTTAGGGTTAGGGTTAGGG; test: NMR titration (chemical shifts, intermolecular NOEs); conditions: 50 mM NaCl; pH 7, 283 K; binds at both loop ends
[4] = 7 μM complex, one-set-of-sites fit

[Ru+2].[Ru+2].c1cnc2c(c1)c1nc3c4cccnc4c4ncccc4c3nc1c1cccnc12.c1cnc2c(c1)ccc1cccnc12.c1cnc2c(c1)ccc1cccnc12.c1cnc2c(c1)ccc1cccnc12.c1cnc2c(c1)ccc1cccnc12 [ΛΛ-2]
binding ([1]; binds at both ends): yes
Kb [2, 4]: 1.16 × 10^7 M^–1

[Ru+2].[Ru+2].c1cnc2c(c1)c1nc3c4cccnc4c4ncccc4c3nc1c1cccnc12.c1cnc2c(c1)ccc1cccnc12.c1cnc2c(c1)ccc1cccnc12.c1cnc2c(c1)ccc1cccnc12.c1cnc2c(c1)ccc1cccnc12 [ΔΔ-2]
binding ([1]; binds mainly at lateral loop end): yes
Kb [2, 4]: 2.95 × 10^5 M^–1

[Ru+2].[Ru+2].c1ccc(-c2ccccn2)nc1.c1ccc(-c2ccccn2)nc1.c1ccc(-c2ccccn2)nc1.c1ccc(-c2ccccn2)nc1.c1cnc2c(c1)c1nc3c4cccnc4c4ncccc4c3nc1c1cccnc12
binding [3]: yes

[Ru+2].[Ru+2].c1cnc2c(c1)c1nc3c4cccnc4c4ncccc4c3nc1c1cccnc12.c1cnc2c(c1)ccc1cccnc12.c1cnc2c(c1)ccc1cccnc12.c1cnc2c(c1)ccc1cccnc12.c1cnc2c(c1)ccc1cccnc12
Kb ([2]; apparent, diastereomeric mixture): 1.77 × 10^7 M^–1
